Reference: PMC8571951, “An activity‐based bioprobe differentiates a novel small molecule inhibitor from a LOXL2 antibody and provides renewed promise for anti‐fibrotic therapeutic strategies” (Clinical and Translational Medicine, 2021)
pIC50: −log10 of the molar value.

Experiments:
[1] = test system: streptozotocin and high fat diet-induced model of NASH; assay: Streptozotocin and high fat diet-induced mouse model of NASH; type: in vivo
Protocol: PXS-5338 was evaluated in a 14-week mouse model of NASH (Takakura, Koido et al. 2014), dosing therapeutically at 10 mg/kg from weeks 8-12 and increasing to 30 mg/kg from weeks 12-14. […] Telmisartan served as a positive pharmacological control.

[2] = target: T1, native LOXL2 protein in human plasma (Homo sapiens, UniProt Q9Y4K0); assay: PXS-5878/Simoa platform, residual LOXL2 activity in human plasma; type: biochemical; conditions: human plasma incubated 30 min; read-out: IC50, inhibition of native LOXL2 in human plasma
T1 construct: from tissue; host or cells: human plasma (activity) and human serum (protein concentration) from clinical trial subjects
T1 sequence (Q9Y4K0 26-774): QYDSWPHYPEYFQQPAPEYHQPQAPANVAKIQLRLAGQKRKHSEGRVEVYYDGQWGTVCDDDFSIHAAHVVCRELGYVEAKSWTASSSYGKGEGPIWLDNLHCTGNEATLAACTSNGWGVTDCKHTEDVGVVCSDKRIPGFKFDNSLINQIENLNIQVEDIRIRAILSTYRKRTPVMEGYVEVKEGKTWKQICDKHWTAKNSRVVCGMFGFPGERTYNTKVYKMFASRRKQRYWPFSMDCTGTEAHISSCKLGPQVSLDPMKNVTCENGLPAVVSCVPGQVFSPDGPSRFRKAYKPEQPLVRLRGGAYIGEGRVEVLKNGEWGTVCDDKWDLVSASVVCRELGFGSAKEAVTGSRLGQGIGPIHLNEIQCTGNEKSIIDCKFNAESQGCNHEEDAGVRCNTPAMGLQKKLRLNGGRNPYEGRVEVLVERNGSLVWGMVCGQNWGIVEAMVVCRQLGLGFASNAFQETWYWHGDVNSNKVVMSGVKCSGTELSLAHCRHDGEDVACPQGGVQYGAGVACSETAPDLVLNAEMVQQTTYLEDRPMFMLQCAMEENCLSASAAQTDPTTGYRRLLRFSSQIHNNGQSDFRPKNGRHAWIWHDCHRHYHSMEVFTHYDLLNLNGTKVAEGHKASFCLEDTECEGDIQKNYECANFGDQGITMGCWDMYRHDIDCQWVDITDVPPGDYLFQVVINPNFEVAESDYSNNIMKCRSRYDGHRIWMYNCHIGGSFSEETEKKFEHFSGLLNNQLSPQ
Protocol: (§1) FIGURE 2 Characteristics of PXS‐5338 and inhibition of lysyl oxidase‐like 2 (LOXL2) enzymatic activity in vitro and in vivo. (A) Chemical structure of PXS‐5338. […] (B) Tissue levels of PXS‐5338 measured 1 and 4 h after a single oral dose of 30 mg/kg in the rat. […] Average data from three different animals. (C) Concentration‐dependent inhibition of native […] LOX and rh LOXL1‐4 in a standard Amplex Red assay with 30 min pre‐incubation; n ≥3 independent experiments, standard error of mean (SEM). (D) PXS‐5338 inhibits rh LOXL2 in a time‐dependent manner, with increasing potency observed upon longer incubation with the enzyme. LOXL2 activity data devised from Amplex Red assay using putrescine as substrate and varying pre‐incubation times; n ≥3 independent experiments, standard error of mean (SEM). […] AB0023 and the corresponding isotype control antibody GS834298 were kindly provided by Gilead. Concentration‐response curves for the pan‐LOX inhibitor BAPN and LOXL2‐selective inhibitor PXS‐5338 are included for comparison. Data represented as mean ± SD with n = 5/concentration. […] To enable translation of preclinical data into the clinic, human plasma was incubated with different concentrations of PXS‐5338 for 30 min and the PXS‐5878/Simoa® platform used to measure the residual activity. […]

[3] = Pharmacokinetic profile in healthy human males; type: in vivo
Protocol: FIGURE 3 Inhibition of human lysyl oxidase‐like 2 (LOXL2) enzymatic activity by PXS‐5338 in clinical trials. (A) LOXL2 protein concentration in human serum is fairly constant over 24 h. Protein concentrations normalised to pre‐dose levels are plotted over time in healthy subjects treated with different doses (placebo, 100, 200 and 400 mg) of PXS‐5338. Mean ± SD with n = 6/time point. Phase 1 study with healthy male volunteers, ANZCTR ACTRN12617001444370. Legend of (A) also applies to (B) and (C). (B) Dose‐dependent inhibition of LOXL2 in plasma following a single oral dose of 100, 200 mg or 400 mg PXS‐5338. PXS‐5878/Simoa® platform used to measure the residual activity. Mean ± SD with n = 6/time point. (C) Pharmacokinetic (PK) profile of PXS‐5338 in healthy human males. […] (D) Correlation between LOXL2 protein concentration versus % inhibition. Activity data normalised to pre‐dose value.

[4] = Tissue levels after single oral dose in the rat; type: in vivo; conditions: single oral dose 30 mg/kg, 1 and 4 h
Protocol: as §1

[5] = 10 mg/kg weeks 8-12, 30 mg/kg weeks 12-14

pIC50 [2]	Compound half-life in humans [3]	Compound	Collagen content (hydroxyproline) [1, 5]	Fibrosis, fibrotic area (picrosirius red staining) [1, 5]	Hepatocyte ballooning [1, 5]	Immature and mature crosslinks (DHLNL and PYD) [1, 5]	NASH scoring ([1]; 10 mg/kg weeks 8-12, 30 mg/kg weeks 12-14, vs NASH group)	Tissue penetration / distribution [4]
–	–	CC(C)c1c(Cc2ccc(S(C)(=O)=O)nc2)c2ncccc2n1C/C(F)=C/CN [PXS-5338]	significant reduction in collagen content	significantly attenuated fibrosis	reduction in hepatocyte ballooning	reduction in immature and mature crosslinks	significantly decreased NASH scoring	–
7.43	prolonged compound half‐life	CC(C)c1c(Cc2ccc(S(C)(=O)=O)nc2)c2ncccc2n1C/C(F)=C/CN [PXS‐5338]	–	–	–	–	–	good penetration, with preferential distribution to the liver followed by the kidney, lung and heart
